What was measured:
HT29 colon cancer cells = assay: Cell growth inhibition, Sulforhodamine B assay, HT29; assay type: cell-based; details: Homo sapiens, HT-29, 120 h, 5 days culture, SRB assay, read-out: Cell Line GI50 Range HT29
human PLK4 = molecular target: T1, human PLK4 (Homo sapiens, UniProt O00444); assay: PLK4 inhibition assay (indirect ELISA); assay type: biochemical; details: GST-PLK4 4 nM, 15 μM ATP; read-out: IC50 Ranges PLK4
T1 construct: amino terminal GST fusion of residues 1-391 of human PLK4; made in house; host or cells: E. coli
T1 sequence (O00444 1-391): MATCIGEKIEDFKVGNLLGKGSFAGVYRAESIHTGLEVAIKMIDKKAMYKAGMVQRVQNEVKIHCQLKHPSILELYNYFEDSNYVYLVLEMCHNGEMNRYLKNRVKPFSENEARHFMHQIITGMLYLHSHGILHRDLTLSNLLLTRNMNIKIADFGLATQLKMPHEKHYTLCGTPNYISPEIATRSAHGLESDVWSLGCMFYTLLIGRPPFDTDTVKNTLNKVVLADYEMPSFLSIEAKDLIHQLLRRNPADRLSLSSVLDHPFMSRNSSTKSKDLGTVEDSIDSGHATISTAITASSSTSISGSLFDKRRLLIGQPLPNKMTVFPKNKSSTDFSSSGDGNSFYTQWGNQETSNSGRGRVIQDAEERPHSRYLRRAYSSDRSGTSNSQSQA
Method in brief: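 Dephosphorylated GST-tagged human PLK4 (residues 1-391, E. coli), 4 nM, preincubated 15 min with compound, then reacted 30 min with 15 μM ATP on MBP-coated plates (50 mM HEPES pH 7.5, 10 mM MgCl2, 0.01% Brij 35). Phospho-MBP detected by antibody ELISA at 450 nm. Tested at 10 μM or 10-point titrations; IC50 from 4-parameter logistic fit.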

human TTK = molecular target: T2, human TTK (Homo sapiens, UniProt P33981); assay: TTK inhibition assay (indirect ELISA); assay type: biochemical; details: GST-TTK 0.68 nM, 16 μM ATP; read-out: IC50 Ranges TTK
T2 construct: amino terminal GST fusion of full length human TTK; purchased Invitrogen
T2 sequence (P33981 1-857): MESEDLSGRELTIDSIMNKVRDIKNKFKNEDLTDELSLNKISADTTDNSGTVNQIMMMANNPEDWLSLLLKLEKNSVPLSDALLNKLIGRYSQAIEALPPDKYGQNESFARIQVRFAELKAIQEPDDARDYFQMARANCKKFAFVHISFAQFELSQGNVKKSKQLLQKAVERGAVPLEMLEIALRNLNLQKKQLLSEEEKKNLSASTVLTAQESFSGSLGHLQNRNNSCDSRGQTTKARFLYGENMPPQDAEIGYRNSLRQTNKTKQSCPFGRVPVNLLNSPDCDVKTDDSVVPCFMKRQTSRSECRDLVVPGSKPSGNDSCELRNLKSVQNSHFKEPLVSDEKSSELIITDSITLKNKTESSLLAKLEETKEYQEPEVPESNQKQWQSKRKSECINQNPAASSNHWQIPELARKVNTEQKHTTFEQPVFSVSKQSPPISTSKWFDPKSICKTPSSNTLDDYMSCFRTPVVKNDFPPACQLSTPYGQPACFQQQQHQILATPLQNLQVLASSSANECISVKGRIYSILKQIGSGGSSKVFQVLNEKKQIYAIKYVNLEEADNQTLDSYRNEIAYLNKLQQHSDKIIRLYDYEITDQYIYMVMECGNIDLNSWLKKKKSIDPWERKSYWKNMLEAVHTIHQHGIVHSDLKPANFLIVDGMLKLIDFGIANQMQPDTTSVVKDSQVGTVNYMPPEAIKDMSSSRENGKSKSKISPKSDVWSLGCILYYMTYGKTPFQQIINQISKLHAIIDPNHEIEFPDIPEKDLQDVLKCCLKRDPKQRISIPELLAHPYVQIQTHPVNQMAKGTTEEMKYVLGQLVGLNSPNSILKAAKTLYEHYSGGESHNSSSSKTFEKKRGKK

[1] = test system: PA-1 ovarian cancer cells; assay: Cell growth inhibition, Sulforhodamine B assay, PA-1; assay type: cell-based; details: 120 h, 5 days culture, SRB assay, read-out: Cell Line GI50 Range PA-1
[2] = test system: OVCAR-3 ovarian cancer cells; assay: Cell growth inhibition, Sulforhodamine B assay, OVCAR-3; assay type: cell-based; details: Homo sapiens, 120 h, 5 days culture, SRB assay, read-out: Cell Line GI50 Range OVCAR-3
[3] = test system: MDA-MB-468 breast cancer cells; assay: Cell growth inhibition, Sulforhodamine B assay, MDA-MB-468; assay type: cell-based; details: Homo sapiens, 120 h, 5 days culture, SRB assay, read-out: Cell Line GI50 Range MDA-MB-468
[4] = test system: MDA-MB-231 breast cancer cells; assay: Cell growth inhibition, Sulforhodamine B assay, MDA-MB-231; assay type: cell-based; details: Homo sapiens, 120 h, 5 days culture, SRB assay, read-out: Cell Line GI50 Range MDA-MB-231
[5] = test system: Ovarian TICs, 2393A ovarian; assay: Ovarian tumor-initiating cell growth inhibition (Alamar Blue); assay type: cell-based; details: 144 h, 6 days, read-out: GI50 range 2393A ovarian
[6] = test system: HCT116 colon cancer cells; assay: Cell growth inhibition, Sulforhodamine B assay, HCT116; assay type: cell-based; details: Homo sapiens, HCT-116, 120 h, 5 days culture, SRB assay, read-out: Cell Line GI50 Range HCT116
[7] = test system: Colon tumor initiating cells (TICs), 12 colon; assay: Colon tumor-initiating cell growth inhibition (Alamar Blue); assay type: cell-based; details: 216 h, 9 days, read-out: GI50 range 12 colon
Aurora B = molecular target: T3, Aurora B (Homo sapiens, UniProt Q96GD4); assay: Aurora B inhibition assay (Z-Lyte); assay type: biochemical; details: 28 nM Aurora B, 128 μM ATP; read-out: IC50 Ranges Aurora B
T3 construct: purchased Invitrogen PV3970
Experimental: Aurora B inhibition was determined using the Z-Lyte assay kit from Invitrogen. The assay was performed using the recommended manufacturer's instructions with 128 μM ATP and 28 nM Aurora B (Invitrogen cat #PV3970). The % inhibition values were determined according to the manufacturer's directions and IC50 values were obtained using a non-linear 4 point logistic curve fit (XLfit4, IDBS)

T3 sequence (Q96GD4 whole entry): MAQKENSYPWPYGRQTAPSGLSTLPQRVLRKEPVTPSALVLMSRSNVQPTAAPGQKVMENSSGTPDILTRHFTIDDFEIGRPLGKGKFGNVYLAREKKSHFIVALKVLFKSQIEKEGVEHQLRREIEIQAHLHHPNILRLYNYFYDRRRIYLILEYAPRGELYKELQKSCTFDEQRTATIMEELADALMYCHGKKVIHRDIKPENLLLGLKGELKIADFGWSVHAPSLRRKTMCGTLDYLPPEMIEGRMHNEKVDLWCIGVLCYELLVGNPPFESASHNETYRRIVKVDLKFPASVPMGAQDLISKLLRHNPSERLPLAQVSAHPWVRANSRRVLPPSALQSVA

COCCN1CCC(Oc2ccc(-c3n[nH]c4ccc(NC(=O)C(c5ccsc5)N5CCCC5)cc34)cc2)CC1 (stereo not drawn) [Example A175, N-(3-(4-((1-(2-methoxyethyl)piperidin-4-yl)oxy)phenyl)-1H-indazol-5-yl)-2-(pyrrolidin-1-yl)-2-(thiophen-3-yl)acetamide]
≤ 5 µM: GI50 (HT29 colon cancer cells) | IC50 (human PLK4) | IC50 (human TTK) | GI50 [1] | GI50 [2] | GI50 [3] | GI50 [4] | GI50 [5] | GI50 [6] | GI50 [7] | IC50 (Aurora B)

CN1CCC(Oc2ccc(-c3n[nH]c4ccc(C(=O)NC(c5ccccc5Cl)C5CC5)cc34)cc2)CC1 (stereo not drawn) [Example A150, N-((2-chlorophenyl)(cyclopropyl)methyl)-3-(4-((1-methylpiperidin-4-yl)oxy)phenyl)-1H-indazole-5-carboxamide]
≤ 5 µM: GI50 (HT29 colon cancer cells) | IC50 (human PLK4) | IC50 (human TTK) | GI50 [1] | GI50 [2] | GI50 [3] | GI50 [4] | GI50 [5] | GI50 [6] | GI50 [7] | IC50 (Aurora B)

CC[C@@H](NC(=O)c1ccc2[nH]nc(-c3ccc(OC4CCN(C)CC4)cc3)c2c1)c1cccc(OC)c1 [Example A174, (R)—N-(1-(3-methoxyphenyl)propyl)-3-(4-((1-methylpiperidin-4-yl)oxy)phenyl)-1H-indazole-5-carboxamide]
≤ 5 µM: GI50 (HT29 colon cancer cells) | IC50 (human PLK4) | IC50 (human TTK) | GI50 [1] | GI50 [2] | GI50 [3] | GI50 [4] | GI50 [5] | GI50 [6] | GI50 [7] | IC50 (Aurora B)

COc1ccccc1C(NC(=O)c1ccc2[nH]nc(-c3ccc(OC4CCN(C)CC4)cc3)c2c1)C1CC1 (stereo not drawn) [Example A151, N-(cyclopropyl(2-methoxyphenyl)methyl)-3-(4-((1-methylpiperidin-4-yl)oxy)phenyl)-1H-indazole-5-carboxamide]
≤ 5 µM: GI50 (HT29 colon cancer cells) | IC50 (human PLK4) | IC50 (human TTK) | GI50 [1] | GI50 [2] | GI50 [3] | GI50 [4] | GI50 [5] | GI50 [6] | GI50 [7] | IC50 (Aurora B)

COCCN1CCC(Oc2ccc(-c3n[nH]c4ccc(C(=O)NC(c5ccccc5)C5CC5)cc34)cc2)CC1 (stereo not drawn) [Example A98, N-(cyclopropyl(phenyl)methyl)-3-(4-((1-(2-methoxyethyl)piperidin-4-yl)oxy)phenyl)-1H-indazole-5-carboxamide]
≤ 5 µM: GI50 (HT29 colon cancer cells) | IC50 (human PLK4) | IC50 (human TTK) | GI50 [1] | GI50 [2] | GI50 [3] | GI50 [4] | GI50 [5] | GI50 [6] | GI50 [7] | IC50 (Aurora B)

O=C(NC(c1ccccc1)C1CC1)c1ccc2[nH]nc(-c3ccc(OC4CCN(C5COC5)CC4)cc3)c2c1 (stereo not drawn) [Example A157]
≤ 5 µM: GI50 (HT29 colon cancer cells) | IC50 (human PLK4) | IC50 (human TTK) | GI50 [1] | GI50 [2] | GI50 [3] | GI50 [4] | GI50 [5] | GI50 [6] | GI50 [7] | IC50 (Aurora B)

CN1CCC(Oc2ccc(-c3n[nH]c4ccc(C(=O)NC(c5ccsc5)C5CCCC5)cc34)cc2)CC1 (stereo not drawn) [Example A110, N-(cyclopentyl(thiophen-3-yl)methyl)-3-(4-((1-methylpiperidin-4-yl)oxy)phenyl)-1H-indazol-5-carboxamide]
≤ 5 µM: GI50 (HT29 colon cancer cells) | IC50 (human PLK4) | IC50 (human TTK) | GI50 [1] | GI50 [2] | GI50 [3] | GI50 [4] | GI50 [5] | GI50 [6] | GI50 [7] | IC50 (Aurora B)

CN1CCC(Oc2ccc(-c3n[nH]c4ccc(NC(=O)C(c5ccccc5)C5CC5)cc34)cc2)CC1 (stereo not drawn) [Example A138, 2-cyclopropyl-N-(3-(4-((1-methylpiperidin-4-yl)oxy)phenyl)-1H-indazol-5-yl)-2-phenylacetamide]
≤ 5 µM: GI50 (HT29 colon cancer cells) | IC50 (human PLK4) | IC50 (human TTK) | GI50 [1] | GI50 [2] | GI50 [3] | GI50 [4] | GI50 [5] | GI50 [6] | GI50 [7] | IC50 (Aurora B)

CN1CCC(Oc2ccc(-c3n[nH]c4ccc(NC(=O)C(c5cccs5)N5CCCC5)cc34)cc2)CC1 (stereo not drawn) [Example A91, N-(3-(4-((1-methylpiperidin-4-yl)oxy)phenyl)-1H-indazol-5-yl)-2-(pyrrolidin-1-yl)-2-(thiophen-2-yl)acetamide]
≤ 5 µM: GI50 (HT29 colon cancer cells) | IC50 (human PLK4) | IC50 (human TTK) | GI50 [1] | GI50 [2] | GI50 [3] | GI50 [4] | GI50 [5] | GI50 [6] | GI50 [7] | IC50 (Aurora B)
